These results are taken from patent US8076338B2, “Kinase modulators and methods of use” (Exelixis, Inc., priority 2004, dated 2011).

The target of one assay is AktK (Homo sapiens, UniProt P31749). The assay is described as follows: Luciferase-coupled chemiluminescence kinase assay (ATP consumption). In kind it is biochemical. Conditions: Table 1; class symbols per key; read-out: AKT-1 IC50. Put shortly: (§1)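 Enzyme at 2.5-5 nM was preincubated 30 min at room temperature with compound in Tris pH 7.5, MgCl2, TX-100, DTT, then reacted with ATP for 3 h at ambient temperature. Remaining ATP was quantified by luciferase-luciferin chemiluminescence, with consumption kept at 25-60%; […].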

The target in another assay is p70S6K (Homo sapiens, UniProt P23443). The description is as above. The assay is classed as biochemical. Conditions: Table 1; class symbols per key. In outline: as §1
Chain of p70S6K (P23443 whole entry): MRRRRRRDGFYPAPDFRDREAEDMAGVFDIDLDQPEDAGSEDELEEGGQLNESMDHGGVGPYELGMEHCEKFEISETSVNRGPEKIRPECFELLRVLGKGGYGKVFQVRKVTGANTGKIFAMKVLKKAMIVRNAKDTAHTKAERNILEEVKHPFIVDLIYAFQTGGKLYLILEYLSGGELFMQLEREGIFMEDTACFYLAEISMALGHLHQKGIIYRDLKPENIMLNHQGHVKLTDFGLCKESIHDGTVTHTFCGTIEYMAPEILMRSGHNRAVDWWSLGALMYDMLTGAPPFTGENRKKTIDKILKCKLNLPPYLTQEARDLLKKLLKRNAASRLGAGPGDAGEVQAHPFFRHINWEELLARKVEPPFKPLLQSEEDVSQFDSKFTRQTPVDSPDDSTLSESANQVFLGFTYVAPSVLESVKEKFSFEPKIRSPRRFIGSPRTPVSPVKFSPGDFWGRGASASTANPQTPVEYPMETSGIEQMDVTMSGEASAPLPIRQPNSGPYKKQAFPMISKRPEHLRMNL

Chain of AktK (P31749 whole entry): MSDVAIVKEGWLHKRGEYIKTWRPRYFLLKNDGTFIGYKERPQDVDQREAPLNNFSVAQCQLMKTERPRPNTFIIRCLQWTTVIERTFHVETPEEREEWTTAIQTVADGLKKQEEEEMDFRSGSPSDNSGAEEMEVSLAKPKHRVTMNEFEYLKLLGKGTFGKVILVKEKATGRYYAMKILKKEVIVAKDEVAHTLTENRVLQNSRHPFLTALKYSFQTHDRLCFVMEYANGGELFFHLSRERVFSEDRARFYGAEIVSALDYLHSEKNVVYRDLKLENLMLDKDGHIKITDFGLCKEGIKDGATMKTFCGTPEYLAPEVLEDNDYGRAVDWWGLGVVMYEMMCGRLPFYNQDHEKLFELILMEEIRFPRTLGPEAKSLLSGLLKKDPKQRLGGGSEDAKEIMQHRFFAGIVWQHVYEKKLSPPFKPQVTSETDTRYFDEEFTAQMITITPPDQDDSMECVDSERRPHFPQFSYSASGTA

The IC50 is the concentration that gives 50% inhibition. Consider `Cc1c(NCCN2CCCC2)cc(CCc2ccccc2)cc1N1CCN(c2ncnc3[nH]nc(Br)c23)CC1` [Entry 247, 3-[4-(3-bromo-1H-pyrazolo[3,4-d]pyrimidin-4-yl)piperazin-1-yl]-2-methyl-5-(2-phenylethyl)-N-(2-pyrrolidin-1-ylethyl)aniline], for which the IC50 at AktK and on p70S6K was less than 0.1 µM throughout.
In the case of `CCCC(=O)c1cc(NCCN2CCCC2)c(C)c(N2CCN(c3ncnc4[nH]nc(Br)c34)CC2)c1` [Entry 248, 1-{3-[4-(3-bromo-1H-pyrazolo[3,4-d]pyrimidin-4-yl)piperazin-1-yl]-4-methyl-5-[(2-pyrrolidin-1-ylethyl)amino]phenyl}butan-1-one], the IC50 at AktK and at p70S6K was less than 0.1 µM throughout.
In the case of `CON(C)C(=O)c1cc(NCCN2CCCC2)c(C)c(N2CCN(c3ncnc4[nH]nc(Br)c34)CC2)c1` [Entry 249, 3-[4-(3-bromo-1H-pyrazolo[3,4-d]pyrimidin-4-yl)piperazin-1-yl]-N,4-dimethyl-N-(methyloxy)-5-[(2-pyrrolidin-1-ylethyl)amino]benzamide], the half-maximal inhibitory concentration (IC50) is 0.1 to 1 µM at AktK and less than 0.1 µM on p70S6K.
The like results for `Cc1c(Br)cc(OCC(F)(CF)CF)cc1N1CCN(c2ncnc3[nH]nc(Br)c23)CC1` [Entry 250, 3-bromo-4-[4-(3-bromo-5-{[2,3-difluoro-2-(fluoromethyl)propyl]oxy}-2-methylphenyl)pipera-zin-1-yl]-1H-pyrazolo[3,4-d]pyrimidine] were, in that order, 0.1 to 1 µM and less than 0.1 µM.
The like results for `CCc1n[nH]c2ncnc(N3CCN(c4cc(OCC(F)(CF)CF)cc(Br)c4C)CC3)c12` [Entry 251, 4-[4-(3-bromo-5-{[2,3-difluoro-2-(fluorometh-yl)propyl]oxy}-2-methylphenyl)piperazin-1-yl]-3-ethyl-1H-pyrazolo[3,4-d]pyrimidine] were, in that order, 0.1 to 1 µM and less than 0.1 µM.
For `CC(=O)c1cc(NCCN2CCCC2)c(C)c(N2CCN(c3ncnc4[nH]nc(Br)c34)CC2)c1` [Entry 252, 1-{3-[4-(3-bromo-1H-pyrazolo[3,4-d]pyrimidin-4-yl)piperazin-1-yl]-4-methyl-5-[(2-pyrrolidin-1-ylethyl)amino]phenyl}ethanone], in that order: less than 0.1 µM and less than 0.1 µM.
In the case of `Cc1c(NCCN2CCCC2)cc(OC(F)F)cc1N1CCN(c2ncnc3[nH]nc(Br)c23)CC1` [Entry 253, 3-[4-(3-bromo-1H-pyrazolo[3,4-d]pyrimidin-4-yl)piperazin-1-yl]-5-[(difluoromethyl)oxy]-2-methyl-N-(2-pyrrolidin-1-ylethyl)aniline], the IC50 at AktK and against p70S6K was less than 0.1 µM each time.
As to `COc1cc(NCCN2CCCC2)c(C)c(N2CCN(c3ncnc4[nH]nc(Br)c34)CC2)c1` [Entry 255, 3-[4-(3-bromo-1H-pyrazolo[3,4-d]pyrimidin-4-yl)piperazin-1-yl]-2-methyl-5-(methyloxy)-N-(2-pyrrolidin-1-ylethyl)aniline], the half-inhibitory concentration (IC50) was 0.1 to 1 µM on AktK and less than 0.1 µM against p70S6K.
For `CCc1n[nH]c2ncnc(N3CCN(c4cc(OCC(F)(CF)CF)cc(NCCN5CCCC5)c4C)CC3)c12` [Entry 256, 5-{[2,3-difluoro-2-(fluoromethyl)propyl]oxy}-3-[4-(3-ethyl-1H-pyrazolo[3,4-d]pyrimidin-4-yl)pipera-zin-1-yl]-2-methyl-N-(2-pyrrolidin-1-ylethyl)aniline], in that order: less than 0.1 µM and less than 0.1 µM.
For `CC(C)CCNc1c(F)c(F)nc(N2CCN(c3ncnc4[nH]nc(Br)c34)CC2)c1F` [Entry 257, 2-[4-(3-bromo-1H-pyrazolo[3,4-d]pyrimidin-4-yl)piperazin-1-yl]-3,5,6-trifluoro-N-(3-methylbutyl)pyridin-4-amine], in that order: 1 to 10 µM and 0.1 to 1 µM.
The like results for `Cc1c(NCCN2CCCC2)cc(C(=O)NOCC2CC2)cc1N1CCN(c2ncnc3[nH]nc(Br)c23)CC1` [Entry 258, 3-[4-(3-bromo-1H-pyrazolo[3,4-d]pyrimidin-4-yl)piperazin-1-yl]-N-[(cyclopropylmethyl)oxy]-4-methyl-5-[(2-pyrrolidin-1-ylethyl)amino]benzamide] were, in that order, 0.1 to 1 µM and less than 0.1 µM.
Regarding `Cc1nc(-c2cc(NCCN3CCCC3)c(C)c(N3CCN(c4ncnc5[nH]nc(Br)c45)CC3)c2)no1` [Entry 259, 3-[4-(3-bromo-1H-pyrazolo[3,4-d]pyrimidin-4-yl)piperazin-1-yl]-2-methyl-5-(5-methyl-1,2,4-oxadiazol-3-yl)-N-(2-pyrrolidin-1-ylethyl)aniline], the IC50 on AktK and against p70S6K was less than 0.1 µM each time.
As to `CCS(=O)(=O)c1cc(NCCN2CCCC2)c(C)c(N2CCN(c3ncnc4[nH]nc(Br)c34)CC2)c1` [Entry 260, 3-[4-(3-bromo-1H-pyrazolo[3,4-d]pyrimidin-4-yl)piperazin-1-yl]-5-(ethylsulfonyl)-2-methyl-N-(2-pyrrolidin-1-ylethyl)aniline], the IC50 on AktK and against p70S6K was less than 0.1 µM throughout.
Regarding `Cc1c(NCCN2CCCC2)cc(S(C)(=O)=O)cc1N1CCN(c2ncnc3[nH]nc(Br)c23)CC1` [Entry 261, 3-[4-(3-bromo-1H-pyrazolo[3,4-d]pyrimidin-4-yl)piperazin-1-yl]-2-methyl-5-(methylsulfonyl)-N-(2-pyrrolidin-1-ylethyl)aniline], the results for the IC50 on AktK and against p70S6K were 0.1 to 1 µM and less than 0.1 µM, respectively.
The like results for `CCCCC(=O)c1cc(NCCN2CCCC2)c(C)c(N2CCN(c3ncnc4[nH]nc(CC)c34)CC2)c1` [Entry 262, 1-{3-[4-(3-ethyl-1H-pyrazolo[3,4-d]pyrimidin-4-yl)piperazin-1-yl]-4-methyl-5-[(2-pyrrolidin-1-ylethyl)amino]phenyl}pentan-1-one] were, in that order, less than 0.1 µM and less than 0.1 µM.
For `Cc1ccc(OCC(F)(CF)CF)cc1N1CCN(c2ncnc3[nH]nc(Br)c23)CC1` [Entry 263, 3-bromo-4-[4-(5-{[2,3-difluoro-2-(fluorometh-yl)propyl]oxy}-2-methylphenyl)piperazin-1-yl]-1H-pyrazolo[3,4-d]pyrimidine], in that order: less than 0.1 µM and less than 0.1 µM.
The like results for `CC(C)CCNc1c(F)c(NCCN2CCCC2)nc(N2CCN(c3ncnc4[nH]nc(Br)c34)CC2)c1F` [Entry 264, 6-[4-(3-bromo-1H-pyrazolo[3,4-d]pyrimidin-4-yl)piperazin-1-yl]-3,5-difluoro-N~4~-(3-methylbutyl)-N~2~-(2-pyrrolidin-1-ylethyl)pyridine-2,4-diamine] were, in that order, 0.1 to 1 µM and less than 0.1 µM.
On to `Brc1cc(NCCN2CCCC2)cc(N2CCN(c3ncnc4[nH]nc(Br)c34)CC2)c1` [Entry 265, 3-bromo-5-[4-(3-bromo-1H-pyrazolo[3,4-d]pyrimi-din-4-yl)piperazin-1-yl]-N-(2-pyrrolidin-1-ylethyl)aniline], for which the IC50 at AktK and against p70S6K was less than 0.1 µM each time.
For the molecule `Cc1cc(F)c(-c2ccc(F)c(F)c2)cc1N1CCN(c2ncnc3[nH]nc(Br)c23)CC1` [Entry 266, 3-bromo-4-[4-(3′,4′,6-trifluoro-4-methylbiphenyl-3-yl)piperazin-1-yl]-1H-pyrazolo[3,4-d]pyrimidine], the IC50 at AktK is 0.1 to 1 µM; against p70S6K, less than 0.1 µM.
